Assay results published in ChEMBL document CHEMBL3046784, “Exploring QSAR of antiamoebic agents of isolated natural products by MLR, ANN, and RTO” (Med Chem Res, 2012).
In brackets after ≈: the same amount, converted by molar mass.

test system: Entamoeba histolytica; test: Antiamoebic activity against Entamoeba histolytica; type: functional, organism-based; conditions: not given

Row | Structure (SMILES) | IC50
1 | COc1cc2c3cc1Oc1c(OC)c(OC)cc4c1[C@H](Cc1ccc(cc1)Oc1cc(ccc1O)C[C@H]3N(C)CC2)N(C)CC4 (stereo in doubt; 13) [AROMOLINE] | 2.99 µg/mL (≈ 4.91 µM)
2 | COc1cc2c3cc1Oc1c(OC)c(OC)cc4c1[C@H](Cc1ccc(cc1)Oc1cc(ccc1O)C[C@H]3N(C)CC2)N(C)CC4 (stereo in doubt; 117) [AROMOLINE] | 19.64 µg/mL (≈ 32.3 µM)
3 | COc1ccc2cc1Oc1ccc(cc1)C[C@H]1c3cc(c(OC)cc3CCN1C)Oc1c(OC)c(OC)cc3c1[C@H](C2)N(C)CC3 (stereo in doubt; 145) [FANCHININ] | 25.16 µg/mL (≈ 40.4 µM)
4 | COc1ccc2cc1Oc1ccc(cc1)C[C@H]1c3cc(c(OC)cc3CCN1C)Oc1c(OC)c(OC)cc3c1[C@H](C2)N(C)CC3 (stereo in doubt; 146) [FANCHININ] | 10.51 µg/mL (≈ 16.9 µM)

same assay, conditions: Entamoeba histolytica; read-out: IC50

Row | Structure (SMILES) | IC50
5 | CC[C@H]1CN2CCc3c([nH]c4ccccc34)[C@@H]2C[C@H]1C[C@H]1c2[nH]c3ccccc3c2CCN1C.O=C(O)C(=O)O | 0.65 µg/mL
6 | CC(C)=CCC/C(C)=C/CC/C(C)=C/CC/C=C(\C)CC/C=C(\C)CCC=C(C)C | 270 µg/mL (≈ 658 µM)
7 | COC1=C[C@]23CCN(C)[C@H](Cc4cc(OC)c(OC)cc42)C3=CC1=O | 50.1 µg/mL (≈ 147 µM)
8 | CC[C@](C)(OC(C)=O)C(=O)O[C@H]1C(=O)O[C@@H]2C[C@H]3C(C)=CC(=O)[C@@H](O)[C@]3(C)[C@H]3[C@@]4(O)OC[C@]32[C@@H]1[C@@H](C)[C@H]4O [2'-ACETOXY-GLAUCARUBINONE] | 0.155 µg/mL (≈ 0.289 µM)
9 | COc1c(O)cc2oc(-c3ccc(O)cc3)c(OC)c(=O)c2c1O [3,6-DIMETHOXY KAEMPFEROL] | 105 µg/mL (≈ 319 µM)
10 | C=C[C@H]1CN2CC[C@H]1C[C@@H]2[C@@]12Nc3ccccc3[C@]1(O)CCO2 [3-EPIQUINAMINE] | 12.9 µg/mL (≈ 41.3 µM)
11 | CC[C@@H]1CN2CCc3c([nH]c4ccccc34)[C@H]2C[C@@H]1CCO [3-ISOCORYNANTHEOL] | 4.1 µg/mL (≈ 13.7 µM)
12 | C=C[C@H]1CN2CCc3c([nH]c4ccccc34)[C@@H]2C[C@@H]1C[C@H]1NCCc2c1[nH]c1cccc(OC)c21 [3ALPHA-17ALPHA-CINCHOPHYLLINE] | 2.2 µg/mL (≈ 4.71 µM)
13 | C=C[C@H]1CN2CCc3c([nH]c4ccccc34)[C@@H]2C[C@@H]1C[C@@H]1NCCc2c1[nH]c1cccc(OC)c21 [3ALPHA-17BETA-CINCHOPHYLLINE] | 0.96 µg/mL (≈ 2.06 µM)
14 | CCc1ccc2[n+](c1)CCc1c-2[nH]c2ccccc12 [5,6-DIHYDROFLAVOPEREIRINE] | 6.02 µg/mL
15 | C=C[C@H]1CN2CC[C@H]1C[C@H]2c1[nH]c2ccccc2c1CCOC [10-METHOXY CINCHONAMINE] | 4.5 µg/mL (≈ 14.5 µM)
16 | CC[C@@H]1CN2CC[C@@]34c5ccccc5N5[C@@H]([C@@H]6[C@H]7C[C@@H]8N(CC[C@@]89c8cccc(O)c8N(C(C)=O)[C@@H]69)C[C@H]7CC)OC[C@H]([C@H]1C[C@H]23)[C@H]54 [12'-HYDROXYISOSTRYCHNOBILINE] | 21.4 µg/mL (≈ 33.7 µM)
17 | Oc1cc(O)c2c(c1)O[C@H](c1ccc(O)c(O)c1)[C@H](O)C2 [(-)-EPICATECHIN] | 1.92 µg/mL (≈ 6.61 µM)
18 | COC(=O)C1=CO[C@H](O[C@@H]2O[C@H](COC(C)=O)[C@@H](O)[C@H](O)[C@H]2O)[C@H]2[C@@H]1C=C[C@@]21C=C(C(O)c2ccc(O)cc2)C(=O)O1 (stereo not given in full) [ACETYLGAERTNEROSIDE] | 5.4 µg/mL (≈ 9.14 µM)
19 | CCC(C)C(=O)O[C@H]1C(=O)O[C@@H]2C[C@H]3C(C)=CC(=O)[C@@H](O)[C@]3(C)[C@H]3[C@]4(O)OC[C@]32[C@@H]1[C@@H](C)[C@H]4O (stereo not given in full) [AILANTHINONE] | 0.063 µg/mL (≈ 0.132 µM)
20 | CC[C@H]1[C@@H]2C[C@H]3[C@@H]4N(C)c5ccccc5[C@]45C[C@@H]([C@@H]2[C@H]5O)N3[C@@H]1O [AJMALINE] | > 100 µg/mL
21 | C/C=C(/C=O)[C@@H]1C[C@H]2c3c(c4ccccc4n3[C@@H](O)C1)CCN2C [AKAGERINE] | 17.1 µg/mL (≈ 52.7 µM)
22 | O=c1cc(-c2ccc(O)cc2)oc2cc(OC3O[C@H](CO)[C@@H](O)[C@H](O)[C@H]3O)cc(O)c12 (stereo not given in full) [APIGENIN-7-O-GLUCOSIDE] | 59.8 µg/mL (≈ 138 µM)
23 | O=c1cc(-c2ccc(O)cc2)oc2cc(O)cc(O)c12 [APIGENIN] | 12.7 µg/mL (≈ 47 µM)

Row | Structure (SMILES) | IC50
24 | COC(=O)C1=CO[C@@H](C)[C@@H]2CN3CCc4c([nH]c5ccc(OC)cc45)[C@@H]3C[C@H]12 [ARICINE] | 3.6 µg/mL (≈ 9.41 µM)
25 | CN1[C@@H]2CC[C@H]1C[C@@H](OC(=O)C(CO)c1ccccc1)C2 (stereo not given in full) [ATROPINE] | > 100 µg/mL
26 | COc1cc2c3cc1Oc1c(OC)c(OC)cc4c1[C@@H](Cc1ccc(O)c(c1)Oc1ccc(cc1)C[C@@H]3N(C)CC2)N(C)CC4 [BERBAMINE] | 22.4 µg/mL (≈ 36.7 µM)
27 | COc1ccc2cc3[n+](cc2c1OC)CCc1cc2c(cc1-3)OCO2 [BERBERINE] | 1 µg/mL
28 | CC[C@H](CC[C@@H](C)[C@H]1CC[C@H]2[C@@H]3CC=C4C[C@@H](O)CC[C@]4(C)[C@H]3CC[C@]12C)C(C)C [BETA-SITOSTEROL] | 52.3 µg/mL (≈ 126 µM)
29 | C/C=C(/C)C(=O)O[C@H]1[C@@H]2[C@H](C)C(=O)O[C@@H]2C[C@@H](C)[C@@H]2C=CC(=O)[C@]21C [BREVILIN A] | 3.11 µg/mL (≈ 8.98 µM)
30 | COC(=O)[C@@]12OC[C@]34[C@H]([C@@H](O)[C@@H]1O)[C@@]1(C)CC(=O)C(O)=C(C)[C@@H]1C[C@H]3OC(=O)[C@H](OC(=O)/C=C(\C)C(C)C)[C@@H]24 [BRUCEANTIN] | 0.019 µg/mL (≈ 0.0346 µM)
31 | COC(=O)[C@@]12OC[C@]34[C@H]([C@@H](O)[C@@H]1O)[C@@]1(C)CC(=O)C(O)=C(C)[C@@H]1C[C@H]3OC(=O)[C@H](OC(=O)CC(C)C)[C@@H]24 [BRUCEINE A] | 0.097 µg/mL (≈ 0.186 µM)
32 | COC(=O)[C@@]12OC[C@]34[C@H]([C@@H](O)[C@@H]1O)[C@@]1(C)CC(=O)C(O)=C(C)[C@@H]1C[C@H]3OC(=O)[C@H](OC(C)=O)[C@@H]24 [BRUCEINE B] | 0.306 µg/mL (≈ 0.637 µM)
33 | COC(=O)[C@]12OC[C@]34[C@H]([C@@H](O)[C@@H]1O)[C@@]1(C)CC(=O)C(O)=C(C)[C@@H]1C[C@H]3OC(=O)[C@H](OC(=O)/C=C(\C)C(C)(C)O)[C@@H]24 [BRUCEINE C] | 0.279 µg/mL (≈ 0.494 µM)
34 | CC1=CC(=O)[C@@H](O)[C@]2(C)[C@H]3[C@@H](O)[C@H](O)[C@]4(C)OC[C@@]35[C@@H](C[C@@H]12)OC(=O)[C@H](O)[C@]54O [BRUCEINE D] | 0.386 µg/mL (≈ 0.941 µM)
35 | COC(=O)[C@]12OC[C@]34[C@H]([C@@H](O)[C@@H]1O)[C@@]1(C)CC(=O)C(O)=C(C)[C@@H]1C[C@H]3OC(=O)[C@H](OC(=O)C=C(C)C)[C@@H]24 [BRUSATOL] | 0.062 µg/mL (≈ 0.119 µM)
36 | O=c1ccc2nccc3c4ccccc4n1c23 [CANTHIN-6-ONE] | 23 µg/mL (≈ 104 µM)
37 | CC(=O)CCCCCCCCCC[C@H]1CC[C@@H](O)[C@@H](C)N1 [CASSINE] | 12 µg/mL (≈ 40.2 µM)
38 | CC[C@H]1CN2CCc3cc(OC)c(OC)cc3[C@@H]2C[C@@H]1C[C@H]1NCCc2cc(O)c(OC)cc21 [CEPHAELINE] | 3.26 µg/mL (≈ 6.99 µM)
39 | O=c1cc(-c2ccccc2)oc2cc(O)cc(O)c12 [CHRYSIN] | 81 µg/mL (≈ 319 µM)
40 | COc1cc(-c2cc(=O)c3c(O)cc(O[C@@H]4O[C@H](CO)[C@@H](O)[C@H](O)[C@H]4O[C@@H]4O[C@@H](C)[C@H](O)[C@@H](O)[C@H]4O)cc3o2)ccc1O [CHRYSOERIOL-7-O-NEOHESPERIDOSIDE] | > 125 µg/mL
41 | Cc1cc(O)c2c(c1)C(=O)c1cccc(O)c1C2=O [CHRYSOPHANOL] | 6.21 µg/mL (≈ 24.4 µM)
42 | Oc1cc(O)c2c(c1)O[C@H](c1ccc(O)c(O)c1)[C@@H](O)C2 [CIANIDANOL] | 65.5 µg/mL (≈ 226 µM)

Row | Structure (SMILES) | IC50
43 | C=C[C@H]1CN2CC[C@H]1C[C@H]2c1[nH]c2ccccc2c1CCO [CINCHONAMINE] | 14.8 µg/mL (≈ 49.9 µM)
44 | COc1cc2c3c4c1Oc1cc5c(cc1O4)[C@H](Cc1ccc(O)c(c1)Oc1ccc(cc1)C[C@@H]3N(C)CC2)NCC5 [COCSOLINE] | 9.86 µg/mL (≈ 18 µM)
45 | CI.COc1cc2c3c4c1Oc1cc5c(cc1O4)[C@H](Cc1ccc(O)c(c1)Oc1ccc(cc1)C[C@@H]3N(C)CC2)N(C)CC5 [COCSULINE METHIODIDE] | 28.9 µg/mL
46 | COc1cc2c3c4c1Oc1cc5c(cc1O4)[C@H](Cc1ccc(O)c(c1)Oc1ccc(cc1)C[C@@H]3N(C)CC2)N(C)CC5 [COCSULINE] | 13.2 µg/mL (≈ 23.5 µM)
47 | C[C@@H]1N=C[C@]23CC[C@H]4[C@@H](CC=C5C[C@@H](N)CC[C@@]54C)[C@@H]2CC[C@H]13 [CONCKURCHINE] | 12 µg/mL (≈ 38.4 µM)
48 | CN[C@H]1CC[C@@]2(C)C(=CC[C@H]3[C@@H]4CC[C@@H]5[C@H](C)N=C[C@@]54CC[C@@H]32)C1 [CONESSIDINE] | 2.29 µg/mL (≈ 7.01 µM)
49 | C[C@@H]1NC[C@]23CC[C@H]4[C@@H](CC=C5C[C@@H](N(C)C)CC[C@@]54C)[C@@H]2CC[C@H]13 [CONESSIMINE] | 1.87 µg/mL (≈ 5.46 µM)
50 | C[C@H]1[C@H]2CC[C@H]3[C@@H]4CC=C5C[C@@H](N(C)C)CC[C@]5(C)[C@H]4CC[C@]23CN1C [CONESSINE] | 8.97 µg/mL (≈ 25.2 µM)
51 | COc1ccc2c3c(c4cc(OC)c(OC)cc4c2c1)C[C@H]1CCCCN1C3 [CRYPTOPLEURINE] | 0.031 µg/mL (≈ 0.0821 µM)
52 | COc1cc2c3cc1Oc1c(O)c(OC)cc4c1[C@H](Cc1ccc(cc1)Oc1cc(ccc1O)C[C@H]3NCC2)N(C)CC4 [DAPHNOLINE] | > 50 µg/mL
53 | CC[C@@H]1CN2CC[C@@]34c5ccccc5N5[C@@H]([C@@H]6[C@H]7C[C@@H]8N(CC[C@@]89c8ccccc8N(C(C)=O)[C@@H]69)C[C@H]7CC)OC[C@H]([C@H]1C[C@H]23)[C@H]54 [DIDEHYDRO ISOSTRYCHNOBILINE] | 21.4 µg/mL (≈ 34.6 µM)
54 | COc1ccc2cc1-c1cc(ccc1O)C[C@@H]1c3c(cc(OC)c4c3Oc3cc5c(cc3O4)CCN(C)[C@H]5C2)CCN1C [DINKLACORINE] | 19.8 µg/mL (≈ 34.4 µM)
55 | C/C=C1/C[N+]2(C)CCc3c([nH]c4ccccc34)C2CC1C(CO)C(=O)OC (stereo not given) [DIPLOCELINE] | 50 µg/mL
56 | Oc1cc(O)c2c(c1)O[C@H](c1cc(O)c(O)c(O)c1)[C@H](O)C2 [EPIGALLOCATECHIN] | 6.89 µg/mL (≈ 22.5 µM)
57 | COC(=O)C1=CO[C@H](O[C@@H]2O[C@H](CO)[C@@H](O)[C@H](O)[C@H]2O)[C@H]2[C@@H]1[C@@H]1O[C@@H]1[C@@]21C=C(C(O)c2ccc(O)cc2)C(=O)O1 (stereo not given in full) [EPOXYGAERTNEROSIDE] | 1.3 µg/mL (≈ 2.3 µM)
58 | COc1ccc2cc1Oc1ccc(cc1)C[C@H]1c3cc(c(OC)cc3CCN1C)Oc1c(O)c(OC)cc3c1[C@H](C2)N(C)CC3 [FANGCHINOLINE] | 14.7 µg/mL (≈ 24.2 µM)
59 | O=c1c(O)c(-c2ccc(O)c(O)c2)oc2cc(O)ccc12 [FISETIN] | 189 µg/mL (≈ 660 µM)
60 | COc1cc2c3cc1Oc1c(OC)c(OC)cc4c1[C@H](Cc1ccc(O)c(c1)-c1cc(ccc1OC)C[C@H]3N(C)CC2)N(C)CC4 [FUNIFERINE] | 28.3 µg/mL (≈ 45.4 µM)
